Test results published in patent US20110039904A1, “Alcohol alkoxylates, agents comprising the same and use of the alcohol alkoxylates as adjuvants in the agrochemical field” (BASF SE, priority 2008, published 2011).

Test system: leaf rust of wheat "Puccinia recondita"
Experiment: Biotest: curative control of leaf rust of wheat (fungicidal efficacy of epoxiconazole with adjuvant)
Type: in vivo, Puccinia recondita on wheat seedlings "Kanzler"
Settings: 50 ppm epoxiconazole without adjuvant; sprayed 2 days after inoculation; rated after 10 days; wheat seedlings, greenhouse
Experimental: 125 g/l epoxiconazole were ground together with in each case 20 g/l dispersant (Atlas G 5000^1, Synperonic A^1) and 50 g/l propylene glycol in aqueous medium in a stirred-ball mill (dyno-mill) until a particle size of 80% <2 μm was reached. To the mixture were added 3 g/l per liter antifoam, for example Rhodorsil 426^2, 3 g/l thickener, for example Rhodopol 23^2, and a biocide, for example Acticide MBS^3. The respective adjuvant, in aqueous solution or in a solvent, for example Solvesso, was stirred into this mixture, so that the final concentration of the formulation is composed of 62.5 g/l epoxiconazole and 125 g/l adjuvant.
Biotest (curative control of leaf rust of wheat):
Leaves of wheat seedlings of the species “Kanzler” which had been grown in pots were dusted, in the two-leaf stage, with spores of leaf rust of wheat “Puccinia recondita” and incubated for 2 days in the greenhouse at high atmospheric humidity. In fully automated spray cabins, the plants were then sprayed with the formulations which comprised the active ingredients and adjuvants specified hereinbelow. The spray mixtures comprised 50 ppm epoxiconazole and 100 ppm adjuvant. The ratio active ingredient to adjuvant was, accordingly, 1:2. […] After 10 days, the extent of the leaf rust disease was determined visually as disease percent of the total leaf area. 3 pots were evaluated for each combination.

Fc1ccc([C@]2(Cn3cncn3)O[C@H]2c2ccccc2Cl)cc1 (racemic) [Epoxiconazole, epoxiconazole]
% infection (leaf rust disease percent of the total leaf area, determined visually): 23%
